Source: patent publication US4436752A, “Treatment of gastric and gastro-duodenal disorders with derivatives of phenyl aliphatic carboxylic acids” (Roussel Uclaf, priority 1981, dated 1984)

Columns and labels:
[1] = Determination of acute toxicity (LD50, oral route); conditions: mouse, in vivo, mice
Method: (2) Determination of acute toxicity
The lethal dose LD50 of the derivatives of Examples 1 and 2 was evaluated after administration by oral route to mice.

[2] = tested on: ulcers in rats at the level of the stomach; test: Determination of the anti-ulcer activity (SHAY's technique, ulcers induced by ligature of the pylorus); type: in vivo; conditions: rat, per os, about 16 hours after treatment
From the text: (1) Determination of the anti-ulcer activity
The technique used is described by SHAY et al. in Gastroenterology, 5, 43 (1945).
SHAY's technique consists of inducing ulcers in rats at the level of the stomach by ligature of the pylorus.
The animals are anesthetized with ether. A longitudinal incision is made about 1 cm below the sternum, the glandular portion of the stomach and the duodenum are uncovered and a ligature is placed a few millimeters below the pylorus. The muscular plane is left as is and the skin is sutured by two clips.
The animals then immediately receive the dispersive or the substance to be studied per os in a volume of 0.5 ml/100 g, and are kept without food or drink until sacrificed by carotid section, effected about 16 hours after the treatment.
Before removing the stomach, a ligature is placed above the cardia.
The gastric fluid is collected in order to measure its pH.
The stomach is then opened along the greater curvature, rinsed in physiological serum and spread on graph paper in order to be examined under a binocular lens.
The severity of the lesions, graded from 0 to 4 for each stomach, is then evaluated macroscopically.
The average intensity of the ulcerations is determined for each lot of rats and the protection is calculated as the ratio of the mean index for the treated group to the mean index for the control group.
The pH of the gastric fluid is also determined for the treated animals and the control animals.

Row | Compound | LD50 [1] [mg/kg] | Ulceration % protection, with respect to the controls ([2]; 0.8 mg/kg) [%] | pH of the gastric fluid, treated animals ([2]; 0.8 mg/kg, control animals 3.5) | Ulceration % protection, with respect to the controls ([2]; 4 mg/kg) [%] | pH of the gastric fluid, treated animals ([2]; 4 mg/kg, control animals 3.2) | Ulceration % protection, with respect to the controls ([2]; 20 mg/kg) [%] | pH of the gastric fluid, treated animals ([2]; 20 mg/kg, control animals 3.2) | Ulceration % protection, with respect to the controls ([2]; 100 mg/kg) [%] | pH of the gastric fluid, treated animals ([2]; 100 mg/kg, control animals 2.7)
1 | COc1ccc(C(=O)/C=C/C(=O)O)c(OC)c1OC [Example 2, (E) 4-(2,3,4-trimethoxyphenyl)-4-oxo-2-butenoic acid] | ~300 | 17 | 3.1 | 76 | 3.7 | 99 | 5.8 |  | 
2 | COc1ccc(C(=O)CC(O)C(=O)O)c(OC)c1OC (stereo not shown) [Example 1, 4-(2,3,4-trimethoxyphenyl)-4-oxo-2-hydroxy butanoic acid] | > 1000 |  |  |  |  |  |  | 41 | 3.3
